According to the NIST ThermoML archive (doi:10.1021/acs.jced.8b01095):
Numbers after ± are expanded uncertainties.

Experiments:
[1] = molar heat capacity at constant pressure; conditions: 100 kPa, Liquid, Extra sensitive DSC
[2] = Liquid; for viscosity: 2 kPa, Falling or rolling sphere viscometry; for speed of sound / mass density: 100 kPa; for speed of sound: Single path-length method; for mass density: Vibrating tube method
[3] = xn = mol fraction of the nth substance listed; conditions: Liquid, x1 = 1; for viscosity: 2 kPa, Falling or rolling sphere viscometry; for speed of sound / mass density: 100 kPa; for speed of sound: Single path-length method; for mass density: Vibrating tube method

CCCC[n+]1ccn(C)c1.O=S(=O)([N-]S(=O)(=O)C(F)(F)F)C(F)(F)F
Conditions | mass density, [2] [kg/m3] | molar heat capacity at constant pressure, [1] [J/K/mol] | speed of sound, [2] [m/s] | viscosity, [2] [mPa·s]
298.15 K | 1436.62 ± 1.7 | 567.22 ± 26 | 1227.9 ± 1.1 | 49.24 ± 7.4
303.15 K | 1431.8 ± 1.7 | 569.85 ± 26 | 1216.8 ± 1.1 | 40 ± 6.5
308.15 K | 1426.98 ± 1.7 | 572.64 ± 27 | 1205.8 ± 1.1 | 33.02 ± 5
313.15 K | 1422.16 ± 1.7 | 575.47 ± 27 | 1195 ± 1.1 | 27.66 ± 3.9
318.15 K | 1417.34 ± 1.7 | 578.38 ± 27 | 1184.2 ± 1.1 | 23.47 ± 3.1
323.15 K | 1412.52 ± 1.7 | 581.52 ± 27 | 1173.6 ± 1.1 | 20.15 ± 2.8

CCCC[n+]1ccn(C)c1.O=S(=O)([N-]S(=O)(=O)C(F)(F)F)C(F)(F)F + CNc1ccccc1
[3]
Conditions | mass density [kg/m3] | speed of sound [m/s] | viscosity [mPa·s]
298.15 K | 1436.62 ± 1.1 | 1227.9 ± 1.1 | 49.24 ± 7.4
303.15 K | 1431.8 ± 1.1 | 1216.8 ± 1.1 | 40 ± 6.5
308.15 K | 1426.98 ± 1.1 | 1205.8 ± 1.1 | 33.02 ± 5
313.15 K | 1422.16 ± 1.1 | 1195 ± 1.1 | 27.66 ± 3.9
318.15 K | 1417.34 ± 1.1 | 1184.2 ± 1.1 | 23.47 ± 3.1
323.15 K | 1412.52 ± 1.1 | 1173.6 ± 1.1 | 20.15 ± 2.8

CCCCn1cc[n+](C)c1.F[P-](F)(F)(F)(F)F [1-butyl-3-methylimidazolium hexafluorophosphate]
Conditions | mass density, [2] [kg/m3] | molar heat capacity at constant pressure, [1] [J/K/mol] | speed of sound, [2] [m/s] | viscosity, [2] [mPa·s]
298.15 K | 1367.24 ± 1.1 | 407.08 ± 19 | 1443.7 ± 3.2 | 272.86 ± 56
303.15 K | 1363.08 ± 1.1 | 410.01 ± 19 | 1431.9 ± 3.2 | 204.1 ± 47
308.15 K | 1358.91 ± 1.1 | 412.77 ± 19 | 1420.1 ± 3.2 | 155.7 ± 33
313.15 K | 1354.74 ± 1.1 | 415.44 ± 19 | 1408.5 ± 3.2 | 120.9 ± 24
318.15 K | 1350.58 ± 1.1 | 418.26 ± 19 | 1397.1 ± 3.2 | 95.39 ± 18
323.15 K | 1346.41 ± 1.1 | 421.21 ± 20 | 1385.9 ± 3.2 | 76.37 ± 15

CCCCn1cc[n+](C)c1.F[P-](F)(F)(F)(F)F [1-butyl-3-methylimidazolium hexafluorophosphate] + CNc1ccccc1
[3]
Conditions | mass density [kg/m3] | speed of sound [m/s] | viscosity [mPa·s]
298.15 K | 1367.24 ± 1.1 | 1443.7 ± 3.2 | 272.86 ± 57
303.15 K | 1363.08 ± 1.1 | 1431.9 ± 3.2 | 204.1 ± 48
308.15 K | 1358.91 ± 1.1 | 1420.1 ± 3.2 | 155.7 ± 34
313.15 K | 1354.74 ± 1.1 | 1408.5 ± 3.2 | 120.9 ± 24
318.15 K | 1350.58 ± 1.1 | 1397.1 ± 3.2 | 95.39 ± 18
323.15 K | 1346.41 ± 1.1 | 1385.9 ± 3.2 | 76.37 ± 15

CNc1ccccc1 [N-methylaniline]
Conditions | mass density, [2] [kg/m3] | molar heat capacity at constant pressure, [1] [J/K/mol] | speed of sound, [2] [m/s] | viscosity, [2] [mPa·s]
298.15 K | 982.7 ± 1.6 | 207.12 ± 9.6 | 1564.5 ± 0.7 | 1.94 ± 0.62
303.15 K | 978.59 ± 1.6 | 210.92 ± 9.8 | 1546.1 ± 0.7 | 1.73 ± 0.62
308.15 K | 974.47 ± 1.6 | 214.73 ± 10 | 1528.3 ± 0.7 | 1.55 ± 0.61
313.15 K | 970.36 ± 1.6 | 218.53 ± 10 | 1511.5 ± 0.7 | 1.4 ± 0.61
318.15 K | 966.24 ± 1.6 | 222.37 ± 10 | 1492.8 ± 0.7 | 1.27 ± 0.61
323.15 K | 962.13 ± 1.6 | 225.88 ± 10 | 1476.2 ± 0.7 | 1.16
